Measurements reported in US8598204B2, “1,2-dihydro-2-oxoquinoline compounds as 5-HT4 receptor ligands” (Suven Life Sciences Limited, priority 2009, dated 2013).
Where a name gives a salt, the structure may show the parent alone.

What was measured:
[1] = target: T1, recombinant human 5-HT4 receptor (Homo sapiens, UniProt Q13639); assay: Determination of EC50 values for 5-HT4 receptor (CRE-luciferase reporter, CHO cells); format: cell-based; details: stable CHO cell line expressing recombinant human 5-HT4 receptor and pCRE-Luc reporter; 4 hours incubation; luciferase activity
T1 construct: expressed in transfected cells
Protocol: A stable CHO cell line expressing recombinant human 5-HT4 receptor and pCRE-Luc reporter system was used for cell-based assay. The assay offers a non-radioactive based approach to determine binding of a compound to GPCRs. In this specific assay, the level of intracellular cyclic AMP which is modulated by activation or inhibition of the receptor is measured. The recombinant cells harbor luciferase reporter gene under the control of cAMP response element.
The above cells were grown in 96 well clear bottom white plates in Hams F12 medium containing 10% fetal bovine serum (FBS). Prior to the addition of compounds or standard agonist, cells were serum starved overnight. Increasing concentrations of test compounds were added in OptiMEM medium to the cells. The incubation was continued at 37° C. in CO2 incubator for 4 hours. Medium was removed and cells were washed with phosphate buffered saline. The cells were lysed and luciferase activity was measured in a Luminometer. Luminescence units were plotted against the compound concentrations using Graphpad software. EC50 values of the compounds were defined as the concentration required in stimulating the luciferase activity by 50%.

[2] = Rodent pharmacokinetic study; format: in vivo; details: Wistar, rat, plasma, Wister/Male rats, 5 mg/kg; for AUC(0-t) / Cmax / Tmax / half-life: vehicle Water
Protocol: Male Wister rats (230-280 grams) obtained from NIN (National Institute of Nutrition, Hyderabad, India) was used as an experimental animal. Three to five animals were housed in each cage. One day prior to dosing day, male wistar rats (225-250 grams) were anesthetized with isoflurane for surgical placement of jugular vein catheter. Animals were kept fasted over night and maintained on a 12 hours light/dark cycle. Three rats were dosed NCE (5 mg/Kg) orally and intravenously on day 0 and day 2.
At each time point blood was collected by jugular vein. Plasma was stored frozen at −20° C. until analysis. The concentrations of the NCE compound in plasma were determined using LC-MS/MS method. Schedule time points: Pre dose 0.25, 0.5, 1, 1.5, 2, 3, 4, 6, 8, 10, 12 and 24 hours after dosing (n=3). The NCE compounds were quantified in plasma by validated LC-MS/MS method using solid phase extraction technique. NCE compounds were quantified in the calibration range of 2-2000 ng/mL in plasma. Study samples were analyzed using calibration samples in the batch and quality control samples spread across the batch.
Pharmacokinetic parameters Cmax, Tmax, AUCt, T1/2 and Bioavailability were calculated by non-compartmental model using software WinNonlin version 5.0.1.

[3] = Rodent brain penetration study; format: in vivo; details: Wistar, rat; Wister/Male rats, 10 mg/kg, Oral, vehicle Water; brain/plasma; read-out: Steady State Brain Penetration (Cb/Cp)
Protocol: Male Wister rats (230-280 grams) obtained from NIN (National Institute of Nutrition, Hyderabad, India) was used as an experimental animal. Three animals were housed in each cage. Animals were given water and food ad libitum throughout the experiment, and maintained on a 12 hours light/dark cycle.
Brain penetration was determined in discrete manner in rats. One day prior to dosing day, male wistar rats (225-250 grams) were acclimatized. After acclimatization the rats were grouped according to the weight in each group, 3 animals were kept in individual cage and allowed free access to food and water. At each time point (0.5, 1, and 2 hours) n=3 animals were used.
NCE compound was dissolved in water and administered orally at (free base) 10 mg/kg. Blood samples were removed via, cardiac puncture by using isofurane anesthesia the animals were sacrificed to collect brain tissue. Plasma was separated and Brain samples were homogenized and stored frozen at −20° C. until analysis. The concentrations of the NCE compound in plasma and Brain were determined using LC-MS/MS method.
The NCE compounds were quantified in plasma and brain homogenate by validated LC-MS/MS method using solid phase extraction technique. NCE compounds were quantified in the calibration range of 1-500 ng/mL in plasma and brain homogenate. Study samples were analyzed using calibration samples in the batch and quality control samples spread across the batch. Extents of brain-blood ratio were calculated (Cb/Cp).

[4] = system: novel object recognition (cognition) in rats; assay: Object recognition task model; format: in vivo, rat; details: 1 mg/kg p.o.
Protocol: The cognition-enhancing properties of compounds of this invention were estimated using a model of animal cognition: the object recognition task model.
Male Wister rats (230-280 grams) obtained from N. I. N. (National Institute of Nutrition, Hyderabad, India) was used as experimental animals. Four animals were housed in each cage. Animals were kept on 20% food deprivation before one day and given water ad libitum throughout the experiment and maintained on a 12 hours light/dark cycle. Also the rats were habituated to individual arenas for 1 hour in the absence of any objects.
One group of 12 rats received vehicle (1 mL/Kg) orally and another set of animals received compound of the formula (I) either orally or i.p., before one hour of the familiar (T1) and choice trial (T2).
The experiment was carried out in a 50×50×50 cm open field made up of acrylic. In the familiarization phase (T1), the rats were placed individually in the open field for 3 minutes, in which two identical objects (plastic bottles, 12.5 cm height×5.5 cm diameter) covered in yellow masking tape alone (a1 and a2) were positioned in two adjacent corners, 10 cm. from the walls. After 24 hours of the (T1) trial for long-term memory test, the same rats were placed in the same arena as they were placed in (T1) trial. Choice phase (T2) rats were allowed to explore the open field for 3 minutes in presence of one familiar object (a3) and one novel object (b) (Amber color glass bottle, 12 cm high and 5 cm in diameter). Familiar objects presented similar textures, colors and sizes. During the T1 and T2 trial, explorations of each object (defined as sniffing, licking, chewing or having moving vibrissae whilst directing the nose towards the object at a distance of less than 1 cm) were recorded separately by stopwatch. Sitting on an object was not regarded as exploratory activity, however, it was rarely observed.
T1 is the total time spent exploring the familiar objects (a 1+a2).
T2 is the total time spent exploring the familiar object and novel object (a3+b).
The object recognition test was performed as described by Ennaceur, A., Delacour, J., 1988, A new one-trial test for neurobiological studies of memory in rats—Behavioural data, Behav. Brain Res., 31, 47-59.

[5] = choice trial T2 24 hours after T1

T1 sequence (Q13639 whole entry): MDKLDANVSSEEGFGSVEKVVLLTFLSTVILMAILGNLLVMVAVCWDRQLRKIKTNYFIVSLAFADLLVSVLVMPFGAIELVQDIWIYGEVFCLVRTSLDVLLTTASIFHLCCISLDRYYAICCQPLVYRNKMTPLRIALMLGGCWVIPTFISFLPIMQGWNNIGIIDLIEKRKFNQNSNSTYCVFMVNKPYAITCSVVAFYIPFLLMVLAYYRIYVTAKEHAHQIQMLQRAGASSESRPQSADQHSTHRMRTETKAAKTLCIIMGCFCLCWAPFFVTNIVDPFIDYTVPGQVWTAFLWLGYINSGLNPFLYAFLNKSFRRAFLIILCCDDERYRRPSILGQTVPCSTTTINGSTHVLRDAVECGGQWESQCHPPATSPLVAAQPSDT

| Compound | EC50 [1] | other results |
| --- | --- | --- |
| CC(C)Cn1c(=O)c(C(=O)NCCCN2C3CC4CC(C3)CC2C4)c(O)c2ccccc21 [Example 2, N-[(2-Azatricyclo[3.3.1.1^3,7]dec-2-yl)propyl]-4-hydroxy-1-isobutyl-2-oxo-1,2-dihydroquinoline-3-carboxamide hydrochloride] | 4020 nM | – |
| CC(C)n1c(=O)c(C(=O)NC2CCN(C3C4CC5CC(C4)CC3C5)C2)c(O)c2ccccc21 (centres unmarked) [Example 3, N-[1-(Tricyclo[3.3.1.1^3,7]dec-2-yl)pyrrolidin-3-yl]-4-hydroxy-1-isopropyl-2-oxo-1,2-dihydroquinoline-3-carboxamide] | 1110 nM | – |
| CC(C)n1c(=O)c(C(=O)NCCCN2C3CC4CC2CC(c2ccccc2)(C4)C3)c(O)c2ccccc21 [Example 5, N-[(5-Phenyl-2-azatricyclo[3.3.1.1^3,7]dec-2-yl)propyl]-4-hydroxy-1-isopropyl-2-oxo-1,2-dihydroquinoline-3-carboxamide hydrochloride] | 1600 nM | – |
| CC(C)n1c(=O)c(C(=O)NCCCN2CC3CC4CC2CN(C4)C3)c(O)c2ccccc21 (centres unmarked) [Example 6, N-[(1,4-Diazatricyclo[4.3.1.1^3,8]undec-4-yl)propyl]-4-hydroxy-1-isopropyl-2-oxo-1,2-dihydro-quinoline-3-carboxamide] | 667 nM | – |
| CC(C)n1c(=O)c(C(=O)NCCCN2C3CC4CC(C3)CC2C4)c(O)c2cc(Cl)ccc21 [Example 8, N-[(2-Azatricyclo[3.3.1.1^3,7]dec-2-yl)propyl]-6-chloro-4-hydroxy-1-isopropyl-2-oxo-1,2-dihydroquinoline-3-carboxamide] | 3080 nM | – |
| CC(C)n1c(=O)c(C(=O)NCCCN2C3CC4CC(C3)CC2C4)c(O)c2cc(F)ccc21 [Example 9, N-[(2-Azatricyclo[3.3.1.1^3,7]dec-2-yl)propyl]-6-fluoro-4-hydroxy-1-isopropyl-2-oxo-1,2-dihydroquinoline-3-carboxamide] | 935 nM | – |
| CC(C)n1c(=O)c(C(=O)NCCCN2C3CC4CC(C3)CC2C4)c(O)c2cc(Br)ccc21 [Example 10, N-[(2-Azatricyclo[3.3.1.1^3,7]dec-2-yl)propyl]-6-bromo-4-hydroxy-1-isopropyl-2-oxo-1,2-dihydroquinoline-3-carboxamide] | 2800 nM | – |
| CC(C)n1c(=O)c(C(=O)NCCCN2C3CC4CC(C3)CC2C4)c(O)c2cc(N)ccc21 [Example 11, N-[(2-Azatricyclo[3.3.1.1^3,7]dec-2-yl)propyl]-6-amino-4-hydroxy-1-isopropyl-2-oxo-1,2-dihydroquinoline-3-carboxamide] | 3000 nM | – |
| CC(C)n1c(=O)c(C(=O)NC2C3CCN(CC3)C2Cc2cccnc2)c(O)c2ccccc21 (centres unmarked) [Example 12, N-[2-(Pyridin-3-ylmethyl)-1-azabicyclo[2.2.2]oct-3-yl]-4-hydroxy-1-isopropyl-2-oxo-1,2-dihydroquinoline-3-carboxamide] | 972 nM | – |
| CC(C)n1c(=O)c(C(=O)NC2C3CCN(CC3)C2Cc2ccccn2)c(O)c2ccccc21 (centres unmarked) [Example 13, N-[2-(Pyridin-2-ylmethyl)-1-azabicyclo[2.2.2]oct-3-yl]-4-hydroxy-1-isopropyl-2-oxo-1,2-dihydroquinoline-3-carboxamide] | 462 nM | – |
| CC(C)n1c(=O)c(C(=O)NC23CC4CC(C2)N(C)C(C4)C3)c(O)c2ccccc21 [Example 14, N-(2-Methyl-2-azatricyclo[3.3.1.1^3,7]dec-5-yl)-4-hydroxy-1-isopropyl-2-oxo-1,2-dihydro-quinoline-3-carboxamide] | 307 nM | bioavailability ([2]; Oral versus Intravenous): 28 ± 3%; AUC(0-t) ([2]; Intravenous): 820 ± 247 ng·h/mL; Cmax ([2]; Intravenous): 523 ± 57 ng/mL; Tmax ([2]; Intravenous): 0.08 h; half-life ([2]; Intravenous): 3.31 ± 1.47 h; AUC(0-t) ([2]; Oral): 223 ± 50 ng·h/mL; Cmax ([2]; Oral): 67 ± 17 ng/mL; Tmax ([2]; Oral): 0.42 ± 0.14 h; half-life ([2]; Oral): 1.67 ± 0.27 h; Kp [3]: 2.97 ± 0.94 |
| CC(C)N1C2CC3CC1CC(NC(=O)c1c(O)c4ccccc4n(C(C)C)c1=O)(C3)C2 [Example 15, N-(2-Isopropyl-2-azatricyclo[3.3.1.1^3,7]dec-5-yl)-4-hydroxy-1-isopropyl-2-oxo-1,2-dihydro-quinoline-3-carboxamide] | 2730 nM | – |
| CC(C)n1c(=O)c(C(=O)NC2C3CCN(CC3)C2Cc2ccccc2)c(O)c2ccccc21 (centres unmarked) [Example 16, N-(2-Benzyl-1-azabicyclo[2.2.2]oct-3-yl)-4-hydroxy-1-isopropyl-2-oxo-1,2-dihydroquinoline-3-carboxamide] | 3920 nM | – |
| CC(C)n1c(=O)c(C(=O)NCCN2C3CC4CC(C3)CC2C4)c(O)c2ccccc21 [Example 17, N-[(2-Azatricyclo[3.3.1.1^3,7]dec-2-yl)ethyl]-4-hydroxy-1-isopropyl-2-oxo-1,2-dihydroquinoline-3-carboxamide hydrochloride] | 1150 nM | – |
| CCCCN1C2CC3CC1CC(NC(=O)c1c(O)c4ccccc4n(C(C)C)c1=O)(C3)C2 [Example 18, N-(2-Butyl-2-azatricyclo[3.3.1.1^3,7]dec-5-yl)-4-hydroxy-1-isopropyl-2-oxo-1,2-dihydroquinoline-3-carboxamide hydrochloride] | 958 nM | – |
| CCN1C2CC3CC1CC(CNC(=O)c1c(O)c4ccccc4n(C(C)C)c1=O)(C3)C2.Cl [Example 19, N-(2-Ethyl-2-azatricyclo[3.3.1.1^3,7]dec-5-ylmethyl)-4-hydroxy-1-isopropyl-2-oxo-1,2-dihydroquinoline-3-carboxamide hydrochloride] | 645 nM | Inference [4]: Active; Exploration time mean ± S.E.M, Familiar object [4, 5]: 8.83 ± 1.54 s; Exploration time mean ± S.E.M, Novel object [4, 5]: 14.09 ± 1.56 s |
| CCCCN1CCC(NC(=O)c2c(O)c3ccccc3n(C(C)C)c2=O)CC1 [Example 20, N-(1-Butylpiperidin-4-yl)-4-hydroxy-1-isopropyl-2-oxo-1,2-dihydroquinoline-3-carboxamide hydrochloride] | 77 nM | – |
| CC(C)n1c(=O)c(C(=O)NC23CC4CC2CC(N2CCCC2)(C4)C3)c(O)c2ccccc21 (centres unmarked) [Example 21] | 476 nM | – |
| N-[(2-Azatricyclo[3.3.1.1^3,7]dec-2-yl) propyl]-4-hydroxy-1-isobutyl-6-methoxy-2-oxo-1,2-dihydroquinoline-3-carboxamide [Example 7] | 1000 nM | – |
